# Test results as given in ChEMBL document CHEMBL4706576, “Tricyclic heterocycles display diverse sensitivity to the A147T TSPO polymorphism” (Eur J Med Chem, 2020).
# Key:
# [1] = biological target: Translocator protein (Homo sapiens, UniProt P30536); experiment: Displacement of [3H]-PK11195 from wild type TSPO (unknown origin) expressed in human HEK293T cells assessed as inhibitory constant incubated for 90 mins by microbeta scintillation counting method; assay type: cell-based
# [2] = organism: Homo sapiens; experiment: Selectivity index, ratio of Ki for TSPO A147T mutant (unknown origin) to Ki for wild type TSPO (unknown origin)
# Chain of Translocator protein (P30536 whole entry): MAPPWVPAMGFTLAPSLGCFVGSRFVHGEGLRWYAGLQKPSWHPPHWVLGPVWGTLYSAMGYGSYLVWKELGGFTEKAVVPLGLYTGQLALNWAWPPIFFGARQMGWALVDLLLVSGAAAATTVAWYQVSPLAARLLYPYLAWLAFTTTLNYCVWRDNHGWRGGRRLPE
Ki [1] [µM],Ratio Ki [2],SMILES
0.0413,5.5,CCN(Cc1ccccc1)C(=O)CN1Cc2cnn(C)c2Nc2ccccc21
0.2,11.8,CCN(CC)C(=O)CN1c2ccccc2NC(=O)c2ccccc21
0.493,4.6,CCN(CC)C(=O)CN1Cc2cnn(C)c2Nc2ccccc21
> 10,–,CN(C)C(=O)CN1Cc2cnn(C)c2Nc2ccccc21
0.0062,13,CCN(Cc1ccccc1)C(=O)Cc1c(-c2ccc(OC)cc2)nn2c(C)cc(C)nc12
0.0768,2.1,CN(Cc1ccccc1)C(=O)CN1c2ccccc2NC(=O)c2ccccc21
–,2.5,CN(Cc1ccccc1)C(=O)Cn1c2ccccc2c2ccccc21
0.0158,6.2,CCN(Cc1ccccc1)C(=O)CN1c2ccccc2NC(=O)c2ccccc21
0.0413,4.8,CN(Cc1ccccc1)C(=O)CN1Cc2cnn(C)c2Nc2ccccc21
–,5,CCN(Cc1ccccc1)C(=O)Cn1c2ccccc2c2ccccc21
0.338,1.7,COc1ccc(-c2nn3c(C)cc(C)nc3c2CC(=O)N(C)C)cc1
> 10,–,CN(C)C(=O)CN1c2ccccc2NC(=O)c2ccccc21
0.0093,2.9,COc1ccc(-c2nn3c(C)cc(C)nc3c2CC(=O)N(C)Cc2ccccc2)cc1

SMILES,Ki [1] [µM],Ratio Ki [2]
CCN(CC)C(=O)Cn1c2ccccc2c2ccccc21,–,5.9
